For test [1], the target named is T1, human V2 receptor (Homo sapiens, UniProt P30518).
T1 construct: expressed in transfected cells; host or cells: CHO K1 (ATCC) line expressing firefly luciferase under a CRE-responsive promoter
Put plainly: Cellular in vitro assay for vasopressin receptor activity, V2 receptor cell line (CRE-luciferase). The class given is cell-based. The conditions noted are these: Table 1A; compounds of the invention; CHO cell line transfected with human V2 receptor, [Arg8]-vasopressin at EC50; read-out: IC50 hV2. The procedure: (§1) B-1. Cellular In Vitro Assay for Determining Vasopressin Receptor Activity
The identification of agonists and antagonists of the V1a and V2 vasopressin receptors from humans, rats and dogs as well as the quantification of the activity of the compounds of the invention is carried out using recombinant cell lines. These cell lines originally derive from a hamster's ovary epithelial cell (Chinese Hamster Ovary, CHO K1, ATCC: American Type Culture Collection, Manassas, Va. 20108, USA). The test cell lines constitutively express the human, rat or dog V1a or V2 receptors. […] The resulting vasopressin receptor cells react to stimulation of the recombinantly expressed V1a receptors by intracellular release of calcium ions, which can be quantified by the resulting photoprotein luminescence. […] The bioluminescence of the cell lines is detected using a suitable luminometer [Milligan G, Marshall F, Rees S, Trends in Pharmacological Sciences, 17, 235-237 (1996)]. […]
On the day before the assay, the cells are plated out in culture medium (DMEM/F12, 2% FCS, 2 mM glutamine, 10 mM HEPES) in 384-well microtiter plates and kept in a cell incubator (96% humidity, 5% v/v CO2, 37° C.). […] Upon addition of the cell lysis reagent Triton™ and the substrate luciferin, luminescence of firefly luciferase is measured in a luminometer. […]

The target of test [2] is T2, human V1a receptor (Homo sapiens, UniProt P37288).
T2 construct: expressed in transfected cells; host or cells: CHO K1 (ATCC), also stably transfected with a modified aequorin
T2 sequence (P37288 whole entry): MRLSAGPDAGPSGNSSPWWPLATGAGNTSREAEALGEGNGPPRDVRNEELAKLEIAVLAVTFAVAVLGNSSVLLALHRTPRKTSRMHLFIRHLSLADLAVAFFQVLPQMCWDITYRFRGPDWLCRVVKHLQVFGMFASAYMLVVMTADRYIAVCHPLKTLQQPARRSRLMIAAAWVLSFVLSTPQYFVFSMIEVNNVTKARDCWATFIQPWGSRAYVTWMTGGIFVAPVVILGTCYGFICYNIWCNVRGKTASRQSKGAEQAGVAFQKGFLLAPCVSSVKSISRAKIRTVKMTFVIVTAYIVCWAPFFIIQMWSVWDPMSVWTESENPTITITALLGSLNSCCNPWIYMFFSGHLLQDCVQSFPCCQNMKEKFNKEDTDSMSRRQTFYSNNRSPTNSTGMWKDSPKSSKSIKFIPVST
Put plainly: Cellular in vitro assay for vasopressin receptor activity, V1a receptor cell line (photoprotein luminescence). The class given is cell-based. The note with it: Table 1A, compounds of the invention. On the procedure:
as §1
The identification of agonists and antagonists of the V1a and V2 vasopressin receptors from humans, rats and dogs as well as the quantification of the activity of the compounds of the invention is carried out using recombinant cell lines. These cell lines originally derive from a hamster's ovary epithelial cell (Chinese Hamster Ovary, CHO K1, ATCC: American Type Culture Collection, Manassas, Va. 20108, USA). The test cell lines constitutively express the human, rat or dog V1a or V2 receptors. In case of the Gαq-coupled V1a receptors, cells are also stably transfected with a modified form of the calcium-sensitive photoproteins aequorin (human and rat V1a) or obelin (dog V1a), which, after reconstitution with the cofactor coelenterazine, emit light when there are increases in free calcium concentrations [Rizzuto R, Simpson A W, Brini M, Pozzan T, Nature, 358, 325-327 (1992); Illarionov B A, Bondar V S, Illarionova V A, Vysotski E S, Gene, 153 (2), 273-274 (1995)]. The resulting vasopressin receptor cells react to stimulation of the recombinantly expressed V1a receptors by intracellular release of calcium ions, which can be quantified by the resulting photoprotein luminescence. The Gs-coupled V2 receptors are stably transfected into cell lines expressing the gene for firefly luciferase under control of a CRE-responsible promoter. Activation of V2 receptors induces the activation of the CRE-responsive promoter via cAMP increase, thereby inducing the expression of firefly luciferase. The light emitted by photoproteins of V1a cell lines as well as the light emitted by firefly luciferase of V2 cell lines corresponds to the activation or inhibition of the respective vasopressin receptor. The bioluminescence of the cell lines is detected using a suitable luminometer [Milligan G, Marshall F, Rees S, Trends in Pharmacological Sciences, 17, 235-237 (1996)].
Vasopressin V1a Receptor Cell Lines:
On the day before the assay, the cells are plated out in culture medium (DMEM/F12, 2% FCS, 2 mM glutamine, 10 mM HEPES, 5 μg/ml coelenterazine) in 384-well microtiter plates and kept in a cell incubator (96% humidity, 5% v/v CO2, 37° C.). On the day of the assay, test compounds in various concentrations are placed for 10 minutes in the wells of the microtiter plate before the agonist [Arg^8]-vasopressin at EC50 concentration is added. The resulting light signal is measured immediately in a luminometer.
Table 1A below lists individual IC50 values for the compounds of the invention (including racemic mixtures as well as separated enantiomers) that were obtained from cell lines transfected with the human V1a or V2 receptor: […]

SMILES strings stand for the structures.

T1 sequence (P30518 whole entry): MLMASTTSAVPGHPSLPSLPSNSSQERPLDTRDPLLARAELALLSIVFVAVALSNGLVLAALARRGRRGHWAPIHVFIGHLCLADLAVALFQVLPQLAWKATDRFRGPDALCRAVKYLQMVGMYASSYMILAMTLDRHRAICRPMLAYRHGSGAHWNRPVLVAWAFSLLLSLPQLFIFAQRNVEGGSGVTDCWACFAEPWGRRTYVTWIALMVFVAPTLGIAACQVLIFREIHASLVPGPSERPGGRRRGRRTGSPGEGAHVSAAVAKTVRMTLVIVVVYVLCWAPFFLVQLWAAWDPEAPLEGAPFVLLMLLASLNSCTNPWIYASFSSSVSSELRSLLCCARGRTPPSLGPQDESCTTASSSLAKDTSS

`NC(=O)c1nc(Cn2nc(-c3ccc(Cl)cc3)n(CC(=O)C(F)(F)F)c2=O)nn1-c1ncccc1C(F)(F)F` [Example 17, 3-{[3-(4-Chlorophenyl)-5-oxo-4-(3,3,3-trifluoro-2-oxopropyl)-4,5-dihydro-1H-1,2,4-triazol-1-yl]methyl}-1-[3-(trifluoromethyl)pyridin-2-yl]-1H-1,2,4-triazole-5-carboxamide (ketone form) or 3-{[3-(4-Chlorophenyl)-5-oxo-4-(3,3,3-trifluoro-2,2-dihydroxypropyl)-4,5-dihydro-1H-1,2,4-triazol-1-yl]methyl}-1-[3-(trifluoromethyl)pyridin-2-yl]-1H-1,2,4-triazole-5-carboxamide (hydrate form)]: the half-maximal inhibitory concentration (IC50) – broadly, the midpoint of a concentration-inhibition curve – in test [1] is 350 nM; in test [2] (CHO cell line transfected with human V1a receptor, [Arg8]-vasopressin at EC50, read-out: IC50 hV1a), 5.3 nM. Also, in test [2] (selectivity ratio), the “ratio IC50 hV2/hV1a” value is listed as 66.0.

For the origin of these results see US11091463B2, “Amide-substituted pyridinyltriazole derivatives and uses thereof” (BAYER PHARMA AKTIENGESELLSCHAFT, priority 2016, dated 2021).
